The assay addresses T1, β3 adrenergic receptor (β3AR-cc3.1 chimera) (Homo sapiens, UniProt P13945, E36A/M86V/I125V/E126W/Y224A/F341M/Y346L).
T1 construct: gene ADRB3; Ala2 to Leu368 lacking Pro3 to Thr27, with Thermus thermophilus SRS antiparallel coiled coil cc3.1 inserted between Ala231 and Glu286 (replacing ICL3); N-terminal FLAG and C-terminal TwinStrep tags
As to the kind of experiment: radioligand saturation binding (SPA) on membranes of HEK-293S-GnTI- cells expressing β3AR-cc3.[…].

T1 sequence (P13945 2-368 E36A/M86V/I125V/E126W/Y224A/F341M/Y346L): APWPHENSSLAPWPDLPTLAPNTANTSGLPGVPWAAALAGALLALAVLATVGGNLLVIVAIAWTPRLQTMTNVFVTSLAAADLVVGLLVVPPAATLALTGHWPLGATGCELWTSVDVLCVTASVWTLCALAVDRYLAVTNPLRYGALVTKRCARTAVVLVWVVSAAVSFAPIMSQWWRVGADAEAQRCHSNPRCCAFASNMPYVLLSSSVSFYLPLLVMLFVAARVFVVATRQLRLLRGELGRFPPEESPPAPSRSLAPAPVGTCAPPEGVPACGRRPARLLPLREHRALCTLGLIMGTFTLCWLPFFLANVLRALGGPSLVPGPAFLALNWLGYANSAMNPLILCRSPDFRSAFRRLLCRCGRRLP

Consider `CCCc1ccccc1OC[C@@H](O)CNC(C)C` [[3H]-dihydroalprenolol], for which binding was put at a Kd of 0.15 µM.

What is called Kd is the equilibrium constant for the complex coming apart. Read a low Kd as higher affinity.

The record behind these values is paper PMC10287670, “A coiled-coil-based design strategy for the thermostabilization of G-protein-coupled receptors” (Scientific Reports, 2023).
